The test has as its target VEGFR2 (KDR/Flk-1) (Homo sapiens, UniProt P35968). The test can be described thus: in vitro HTScan VEGFR2 kinase assay, colorimetric ELISA detection ([…] ATP). The class given is biochemical. For orientation: In an ELISA, binding on a coated surface is turned into a signal by an enzyme label.

SMILES strings stand for the structures. pIC50: −log10 of the molar value.

VEGFR2 (KDR/Flk-1), sequence (P35968 20-1356): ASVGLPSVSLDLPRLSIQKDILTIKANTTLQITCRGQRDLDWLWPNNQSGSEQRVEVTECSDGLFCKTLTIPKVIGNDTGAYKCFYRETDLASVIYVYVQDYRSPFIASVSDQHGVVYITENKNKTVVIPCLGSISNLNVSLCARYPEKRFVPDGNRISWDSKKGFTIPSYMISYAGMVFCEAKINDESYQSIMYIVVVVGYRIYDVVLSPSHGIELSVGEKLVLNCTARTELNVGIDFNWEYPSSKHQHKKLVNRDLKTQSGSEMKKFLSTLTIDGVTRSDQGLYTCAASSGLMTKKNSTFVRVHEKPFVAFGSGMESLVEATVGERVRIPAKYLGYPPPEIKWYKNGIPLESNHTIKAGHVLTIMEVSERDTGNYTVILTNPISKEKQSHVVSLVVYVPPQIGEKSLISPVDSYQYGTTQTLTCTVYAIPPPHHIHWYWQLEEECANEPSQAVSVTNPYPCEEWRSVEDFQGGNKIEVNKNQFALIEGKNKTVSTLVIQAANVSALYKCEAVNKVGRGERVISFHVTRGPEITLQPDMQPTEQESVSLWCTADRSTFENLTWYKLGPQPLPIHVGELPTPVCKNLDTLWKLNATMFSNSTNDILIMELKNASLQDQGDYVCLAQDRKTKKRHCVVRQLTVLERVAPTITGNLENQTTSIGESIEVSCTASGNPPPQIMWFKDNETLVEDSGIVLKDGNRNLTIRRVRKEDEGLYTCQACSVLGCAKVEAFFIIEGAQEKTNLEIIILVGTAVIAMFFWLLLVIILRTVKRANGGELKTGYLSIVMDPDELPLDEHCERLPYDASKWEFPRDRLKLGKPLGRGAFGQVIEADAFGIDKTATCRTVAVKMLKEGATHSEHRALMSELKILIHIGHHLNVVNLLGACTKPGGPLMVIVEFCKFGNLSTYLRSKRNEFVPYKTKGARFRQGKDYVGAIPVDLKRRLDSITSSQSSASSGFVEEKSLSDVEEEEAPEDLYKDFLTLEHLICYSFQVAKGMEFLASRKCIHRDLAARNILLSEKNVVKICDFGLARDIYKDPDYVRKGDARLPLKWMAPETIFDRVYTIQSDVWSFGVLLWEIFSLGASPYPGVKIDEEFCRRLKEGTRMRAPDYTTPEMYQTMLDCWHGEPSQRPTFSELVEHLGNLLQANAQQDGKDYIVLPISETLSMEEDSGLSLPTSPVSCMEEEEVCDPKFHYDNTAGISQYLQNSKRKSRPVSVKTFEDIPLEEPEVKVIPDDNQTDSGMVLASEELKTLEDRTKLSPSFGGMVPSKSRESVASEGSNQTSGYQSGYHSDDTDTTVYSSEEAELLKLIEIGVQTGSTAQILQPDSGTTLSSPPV

On to `COc1cc2c3c(c4cc(OC)c(OC)cc4c2cc1OC)CN1CCC[C@@H]1C3` [Tylophorine], for which the pIC50 is approximately 5.04.

As a reminder, the pIC50 is the negative decadic logarithm of the IC50, by convention in mol/L. Read a high pIC50 as a low IC50.

For the origin of these results see paper PMC3733984, “Tylophorine, a phenanthraindolizidine alkaloid isolated from Tylophora indica exerts antiangiogenic and antitumor activity by targeting vascular endothelial growth factor receptor 2–mediated angiogenesis” (Molecular Cancer, 2013).
